Data on 25 compounds can be found in the NIST ThermoML archive (doi:10.1016/j.jct.2012.03.015).

Each structure is given as a SMILES string. Numbers after ± are expanded uncertainties.

This data set can be described thus: activity coefficient (dimensionless); of the first substance listed, at infinite dilution; xn = mol fraction of the nth substance listed. Conditions: 101 kPa, Liquid, Chromatography, x1 = 0.

In the case of `Cc1ccccc1C` [1,2-dimethylbenzene] + COCC[N+]1(C)CCCC1.O=S(=O)([N-]S(=O)(=O)C(F)(F)F)C(F)(F)F, the activity coefficient runs as follows: (318.15 K) 1.94 ± 0.13; (328.15 K) 1.96 ± 0.13; (338.15 K) 1.97 ± 0.13; (348.15 K) 1.98 ± 0.13; (358.15 K) 1.99 ± 0.14; (368.15 K) 2 ± 0.14.
Take `Cc1cccc(C)c1` [1,3-dimethylbenzene] + COCC[N+]1(C)CCCC1.O=S(=O)([N-]S(=O)(=O)C(F)(F)F)C(F)(F)F: the activity coefficient worked out at 2.14 ± 0.15 (318.15 K); 2.16 ± 0.15 (328.15 K); 2.17 ± 0.15 (338.15 K); 2.19 ± 0.15 (348.15 K); 2.2 ± 0.15 (358.15 K); 2.22 ± 0.15 (368.15 K).
In the case of `Cc1ccc(C)cc1` [1,4-dimethylbenzene] + COCC[N+]1(C)CCCC1.O=S(=O)([N-]S(=O)(=O)C(F)(F)F)C(F)(F)F, the activity coefficient runs as follows: (318.15 K) 2.15 ± 0.15; (328.15 K) 2.17 ± 0.15; (338.15 K) 2.18 ± 0.15; (348.15 K) 2.2 ± 0.15; (358.15 K) 2.21 ± 0.15; (368.15 K) 2.23 ± 0.15.
Regarding `C1COCCO1` [1,4-dioxane] + COCC[N+]1(C)CCCC1.O=S(=O)([N-]S(=O)(=O)C(F)(F)F)C(F)(F)F, the activity coefficient is, setting by setting: (318.15 K) 0.66 ± 0.05; (328.15 K) 0.68 ± 0.05; (338.15 K) 0.7 ± 0.05; (348.15 K) 0.72 ± 0.05; (358.15 K) 0.74 ± 0.05; (368.15 K) 0.76 ± 0.05.
Consider `C=CCCCCCCCC` [1-decene] + COCC[N+]1(C)CCCC1.O=S(=O)([N-]S(=O)(=O)C(F)(F)F)C(F)(F)F, for which the activity coefficient by setting is: (318.15 K) 41.7 ± 2.9; (328.15 K) 39 ± 2.7; (338.15 K) 36.4 ± 2.5; (348.15 K) 33.8 ± 2.3; (358.15 K) 31.7 ± 2.2; (368.15 K) 29.8 ± 2.
As for `C=CCCCCC` [1-heptene] + COCC[N+]1(C)CCCC1.O=S(=O)([N-]S(=O)(=O)C(F)(F)F)C(F)(F)F, the activity coefficient by setting is: (318.15 K) 14.1 ± 1; (328.15 K) 13.4 ± 0.9; (338.15 K) 12.9 ± 0.9; (348.15 K) 12.3 ± 0.8; (358.15 K) 11.8 ± 0.8; (368.15 K) 11.4 ± 0.8.
On to `C#CCCCCC` [1-heptyne] + COCC[N+]1(C)CCCC1.O=S(=O)([N-]S(=O)(=O)C(F)(F)F)C(F)(F)F, for which the activity coefficient runs as follows: (318.15 K) 4.75 ± 0.32; (328.15 K) 4.71 ± 0.32; (338.15 K) 4.66 ± 0.32; (348.15 K) 4.62 ± 0.31; (358.15 K) 4.58 ± 0.31; (368.15 K) 4.55 ± 0.31.
On to `C#CCCCC` [1-hexyne] + COCC[N+]1(C)CCCC1.O=S(=O)([N-]S(=O)(=O)C(F)(F)F)C(F)(F)F, for which the activity coefficient amounted to 3.29 ± 0.22 (318.15 K); 3.29 ± 0.22 (328.15 K); 3.28 ± 0.22 (338.15 K); 3.28 ± 0.22 (348.15 K); 3.28 ± 0.22 (358.15 K); 3.27 ± 0.22 (368.15 K).
On to `CCC[N+](=O)[O-]` [1-nitropropane] + COCC[N+]1(C)CCCC1.O=S(=O)([N-]S(=O)(=O)C(F)(F)F)C(F)(F)F, for which the activity coefficient is, setting by setting: (318.15 K) 0.74 ± 0.05; (328.15 K) 0.742 ± 0.049; (338.15 K) 0.743 ± 0.049; (348.15 K) 0.744 ± 0.049; (358.15 K) 0.746 ± 0.049; (368.15 K) 0.747 ± 0.049.
With `C#CCCCCCC` [1-octyne] + COCC[N+]1(C)CCCC1.O=S(=O)([N-]S(=O)(=O)C(F)(F)F)C(F)(F)F, the activity coefficient runs as follows: (318.15 K) 6.85 ± 0.47; (328.15 K) 6.73 ± 0.46; (338.15 K) 6.58 ± 0.45; (348.15 K) 6.48 ± 0.44; (358.15 K) 6.37 ± 0.43; (368.15 K) 6.27 ± 0.43.
With `C=CCCC` [1-pentene] + COCC[N+]1(C)CCCC1.O=S(=O)([N-]S(=O)(=O)C(F)(F)F)C(F)(F)F, the activity coefficient worked out at 6.65 ± 0.45 (318.15 K); 6.5 ± 0.44 (328.15 K); 6.35 ± 0.43 (338.15 K); 6.17 ± 0.42 (348.15 K); 6.07 ± 0.41 (358.15 K); 5.91 ± 0.4 (368.15 K).
For the compound `CC(C)CC(C)(C)C` [2,2,4-trimethylpentane] + COCC[N+]1(C)CCCC1.O=S(=O)([N-]S(=O)(=O)C(F)(F)F)C(F)(F)F, the activity coefficient by setting is: (318.15 K) 26.9 ± 1.8; (328.15 K) 25.1 ± 1.7; (338.15 K) 23.7 ± 1.6; (348.15 K) 22.3 ± 1.5; (358.15 K) 21.2 ± 1.4; (368.15 K) 20 ± 1.4.
With `CCC(C)(C)C` [2,2-dimethylbutane] + COCC[N+]1(C)CCCC1.O=S(=O)([N-]S(=O)(=O)C(F)(F)F)C(F)(F)F, the activity coefficient was 15.1 ± 1 (318.15 K); 14.4 ± 1 (328.15 K); 13.7 ± 0.9 (338.15 K); 13.1 ± 0.9 (348.15 K); 12.6 ± 0.9 (358.15 K); 12 ± 0.8 (368.15 K).
As for `CCOC(C)(C)C` [2-ethoxy-2-methylpropane] + COCC[N+]1(C)CCCC1.O=S(=O)([N-]S(=O)(=O)C(F)(F)F)C(F)(F)F, the activity coefficient came out at 6.31 ± 0.43 (318.15 K); 6.19 ± 0.42 (328.15 K); 6.12 ± 0.42 (338.15 K); 6.03 ± 0.41 (348.15 K); 5.94 ± 0.4 (358.15 K); 5.85 ± 0.4 (368.15 K).
For the compound `CCC(C)(C)OC` [2-methoxy-2-methylbutane] + COCC[N+]1(C)CCCC1.O=S(=O)([N-]S(=O)(=O)C(F)(F)F)C(F)(F)F, the activity coefficient was found to be 4.08 ± 0.28 (318.15 K); 4.06 ± 0.28 (328.15 K); 4.05 ± 0.28 (338.15 K); 4.03 ± 0.27 (348.15 K); 4.01 ± 0.27 (358.15 K); 4 ± 0.27 (368.15 K).
For the compound `COC(C)(C)C` [2-methoxy-2-methylpropane] + COCC[N+]1(C)CCCC1.O=S(=O)([N-]S(=O)(=O)C(F)(F)F)C(F)(F)F, the activity coefficient amounted to 2.76 ± 0.19 (318.15 K); 2.79 ± 0.19 (328.15 K); 2.81 ± 0.19 (338.15 K); 2.84 ± 0.19 (348.15 K); 2.86 ± 0.19 (358.15 K); 2.89 ± 0.2 (368.15 K).
As to `CC(C)CO` [2-methyl-1-propanol] + COCC[N+]1(C)CCCC1.O=S(=O)([N-]S(=O)(=O)C(F)(F)F)C(F)(F)F, the activity coefficient came to 2.76 ± 0.19 (318.15 K); 2.46 ± 0.17 (328.15 K); 2.2 ± 0.15 (338.15 K); 2.01 ± 0.14 (348.15 K); 1.84 ± 0.12 (358.15 K); 1.7 ± 0.11 (368.15 K).
For the compound `CC(C)(C)O` [2-methylpropan-2-ol] + COCC[N+]1(C)CCCC1.O=S(=O)([N-]S(=O)(=O)C(F)(F)F)C(F)(F)F, the activity coefficient is 1.92 ± 0.13 (318.15 K); 1.79 ± 0.12 (328.15 K); 1.67 ± 0.11 (338.15 K); 1.56 ± 0.1 (348.15 K); 1.48 ± 0.1 (358.15 K); 1.4 ± 0.09 (368.15 K).
For `CCC(C)CC` [3-methylpentane] + COCC[N+]1(C)CCCC1.O=S(=O)([N-]S(=O)(=O)C(F)(F)F)C(F)(F)F, the activity coefficient is, setting by setting: (318.15 K) 16.6 ± 1.1; (328.15 K) 15.6 ± 1.1; (338.15 K) 14.8 ± 1; (348.15 K) 14.1 ± 1; (358.15 K) 13.5 ± 0.9; (368.15 K) 12.8 ± 0.9.
On to `C=C(C)c1ccccc1` [(1-methylethenyl)benzene] + COCC[N+]1(C)CCCC1.O=S(=O)([N-]S(=O)(=O)C(F)(F)F)C(F)(F)F, for which the activity coefficient reads like this: (318.15 K) 1.87 ± 0.13; (328.15 K) 1.93 ± 0.13; (338.15 K) 1.98 ± 0.13; (348.15 K) 2.03 ± 0.14; (358.15 K) 2.08 ± 0.14; (368.15 K) 2.12 ± 0.14.
Take `CC(C)=O` [acetone] + COCC[N+]1(C)CCCC1.O=S(=O)([N-]S(=O)(=O)C(F)(F)F)C(F)(F)F: the activity coefficient came out at 0.47 ± 0.04 (318.15 K); 0.48 ± 0.04 (328.15 K); 0.49 ± 0.04 (338.15 K); 0.5 ± 0.04 (348.15 K); 0.51 ± 0.04 (358.15 K); 0.52 ± 0.04 (368.15 K).
For the compound `CC#N` [acetonitrile] + COCC[N+]1(C)CCCC1.O=S(=O)([N-]S(=O)(=O)C(F)(F)F)C(F)(F)F, the activity coefficient reads like this: (318.15 K) 0.467 ± 0.036; (328.15 K) 0.469 ± 0.037; (338.15 K) 0.472 ± 0.037; (348.15 K) 0.474 ± 0.037; (358.15 K) 0.477 ± 0.037; (368.15 K) 0.479 ± 0.037.
Consider `c1ccccc1` [benzene] + COCC[N+]1(C)CCCC1.O=S(=O)([N-]S(=O)(=O)C(F)(F)F)C(F)(F)F, for which the activity coefficient came to 1.03 ± 0.06 (318.15 K); 1.04 ± 0.07 (328.15 K); 1.06 ± 0.07 (338.15 K); 1.07 ± 0.07 (348.15 K); 1.08 ± 0.07 (358.15 K); 1.09 ± 0.07 (368.15 K).
`CCCCO` [butan-1-ol] + COCC[N+]1(C)CCCC1.O=S(=O)([N-]S(=O)(=O)C(F)(F)F)C(F)(F)F: the activity coefficient is, setting by setting: (318.15 K) 2.87 ± 0.2; (328.15 K) 2.6 ± 0.2; (338.15 K) 2.35 ± 0.16; (348.15 K) 2.16 ± 0.15; (358.15 K) 1.98 ± 0.13; (368.15 K) 1.84 ± 0.12.
`CCC(C)O` (stereo not given) [butan-2-ol] + COCC[N+]1(C)CCCC1.O=S(=O)([N-]S(=O)(=O)C(F)(F)F)C(F)(F)F: the activity coefficient is 2.4 ± 0.2 (318.15 K); 2.19 ± 0.15 (328.15 K); 2 ± 0.14 (338.15 K); 1.85 ± 0.12 (348.15 K); 1.72 ± 0.12 (358.15 K); 1.61 ± 0.11 (368.15 K).
